Experimental data published in PubChem BioAssay AID2060902 (Molecular Pharmacology Branch, DTP, NCI, 2025).
pIC50: −log10 of the molar value.

Tested on: 485368-065-R3-J5-PDC spheroids with HUVEC/MSC, viability
Test: Anticancer human tumor 485368-065-R3-J5-PDC patient-derived pancreatic carcinoma cell line growth inhibition [RAS]
Conditions: for pIC50: curve of first compound; for viability, T/C: stronger effect = lower value
Summary of the method: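 Agents were tested in combination matrices in half-log decrements from a top concentration at or near clinical Cmax (10 microM if undetermined). Targets were multi-cell spheroids of tumour lines plus HUVEC and MSC stromal cells.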

[1] = second compound 0.00316 µM, first compound 0.0316 µM
[2] = second compound 0.00316 µM, first compound 0.1 µM
[3] = second compound 0.01 µM, first compound 0.0316 µM
[4] = second compound 0.01 µM, first compound 0.1 µM
[5] = second compound 0.0316 µM, first compound 0.0316 µM
[6] = second compound 0.0316 µM, first compound 0.1 µM
[7] = second compound 0.1 µM, first compound 0.0316 µM
[8] = second compound 0.1 µM, first compound 0.1 µM
[9] = second compound 0.316 µM, first compound 0.0316 µM
[10] = second compound 0.316 µM, first compound 0.1 µM
[11] = second compound 1 µM, first compound 0.0316 µM
[12] = second compound 1 µM, first compound 0.1 µM
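Note: spheroids exposed to agents for seven days before readout.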

CC(C)NCC(C(=O)N1CCN(c2ncnc3c2C(C)CC3O)CC1)c1ccc(Cl)cc1 (centres undefined) + C=CC(=O)N1CCN(c2nc(OCC3CCCN3C)nc3c(F)c(-c4nc(N)cc(C)c4C(F)(F)F)c(Cl)cc23)C(C)C1 was tested, and the pIC50 (second compound 0.00316 µM) was less than 5.00, the pIC50 (second compound 0.01 µM) was less than 5.00 and the pIC50 (second compound 0.0316 µM) was less than 5.00. The pIC50 (second compound 0.1 µM) was less than 5.00, the pIC50 (second compound 0.316 µM) was less than 5.00 and the pIC50 (second compound 1 µM) was 5.02. It also gave a viability, T/C [1] of 101%, a viability, T/C [2] of 93.7% and a viability, T/C (second compound 0.00316 µM, first compound 0.316 µM) of 94.7%. For the same molecule, the viability, T/C (second compound 0.00316 µM, first compound 1 µM) was 82.9%, the viability, T/C (second compound 0.00316 µM, first compound 3.16 µM) was 70.8% and the viability, T/C (second compound 0.00316 µM, first compound 10 µM) was 61.6%. For the same molecule, the viability, T/C [3] was 109%, the viability, T/C [4] was 101% and the viability, T/C (second compound 0.01 µM, first compound 0.316 µM) was 91.4%. It also gave a viability, T/C (second compound 0.01 µM, first compound 1 µM) of 75.8%, a viability, T/C (second compound 0.01 µM, first compound 3.16 µM) of 72.9% and a viability, T/C (second compound 0.01 µM, first compound 10 µM) of 53.5%. It also gave a viability, T/C [5] of 102%, a viability, T/C [6] of 124% and a viability, T/C (second compound 0.0316 µM, first compound 0.316 µM) of 93.3%. It also gave a viability, T/C (second compound 0.0316 µM, first compound 1 µM) of 88.2%, a viability, T/C (second compound 0.0316 µM, first compound 3.16 µM) of 68.6% and a viability, T/C (second compound 0.0316 µM, first compound 10 µM) of 57%. It also gave a viability, T/C [7] of 102%, a viability, T/C [8] of 105% and a viability, T/C (second compound 0.1 µM, first compound 0.316 µM) of 93.1%. For the same molecule, the viability, T/C (second compound 0.1 µM, first compound 1 µM) was 78.9%, the viability, T/C (second compound 0.1 µM, first compound 3.16 µM) was 70.5% and the viability, T/C (second compound 0.1 µM, first compound 10 µM) was 57.8%. It also gave a viability, T/C [9] of 100%, a viability, T/C [10] of 105% and a viability, T/C (second compound 0.316 µM, first compound 0.316 µM) of 97.3%. For the same molecule, the viability, T/C (second compound 0.316 µM, first compound 1 µM) was 78.3%, the viability, T/C (second compound 0.316 µM, first compound 3.16 µM) was 71.8% and the viability, T/C (second compound 0.316 µM, first compound 10 µM) was 52.9%. It also gave a viability, T/C [11] of 101%, a viability, T/C [12] of 90.6% and a viability, T/C (second compound 1 µM, first compound 0.316 µM) of 102%. It also gave a viability, T/C (second compound 1 µM, first compound 1 µM) of 84.6%, a viability, T/C (second compound 1 µM, first compound 3.16 µM) of 68% and a viability, T/C (second compound 1 µM, first compound 10 µM) of 49.1%.

For CC(C)n1nc(-c2ccc3oc(N)nc3c2)c2c(N)ncnc21 + C=CC(=O)N1CCN(c2nc(OCC3CCCN3C)nc3c(F)c(-c4nc(N)cc(C)c4C(F)(F)F)c(Cl)cc23)C(C)C1, the pIC50 (second compound 0.00316 µM) was 7.85, the pIC50 (second compound 0.01 µM) was 7.84 and the pIC50 (second compound 0.0316 µM) was 7.77. The pIC50 (second compound 0.1 µM) was 7.71, the pIC50 (second compound 0.316 µM) was 7.77 and the pIC50 (second compound 1 µM) was 7.66. It also gave a viability, T/C (second compound 0.00316 µM, first compound 0.000316 µM) of 106%, a viability, T/C (second compound 0.00316 µM, first compound 0.001 µM) of 99.4% and a viability, T/C (second compound 0.00316 µM, first compound 0.00316 µM) of 77.1%. It also gave a viability, T/C (second compound 0.00316 µM, first compound 0.01 µM) of 56%, a viability, T/C [1] of 35.6% and a viability, T/C [2] of 16.1%. The viability, T/C (second compound 0.01 µM, first compound 0.000316 µM) was 104%, the viability, T/C (second compound 0.01 µM, first compound 0.001 µM) was 90.4% and the viability, T/C (second compound 0.01 µM, first compound 0.00316 µM) was 81.4%. For the same molecule, the viability, T/C (second compound 0.01 µM, first compound 0.01 µM) was 53.6%, the viability, T/C [3] was 37.2% and the viability, T/C [4] was 15.3%. For the same molecule, the viability, T/C (second compound 0.0316 µM, first compound 0.000316 µM) was 97.2%, the viability, T/C (second compound 0.0316 µM, first compound 0.001 µM) was 95.8% and the viability, T/C (second compound 0.0316 µM, first compound 0.00316 µM) was 84.7%. The viability, T/C (second compound 0.0316 µM, first compound 0.01 µM) was 60.9%, the viability, T/C [5] was 36.5% and the viability, T/C [6] was 16.6%. For the same molecule, the viability, T/C (second compound 0.1 µM, first compound 0.000316 µM) was 105%, the viability, T/C (second compound 0.1 µM, first compound 0.001 µM) was 90.9% and the viability, T/C (second compound 0.1 µM, first compound 0.00316 µM) was 96.3%. For the same molecule, the viability, T/C (second compound 0.1 µM, first compound 0.01 µM) was 73.9%, the viability, T/C [7] was 32.8% and the viability, T/C [8] was 15.8%. It also gave a viability, T/C (second compound 0.316 µM, first compound 0.000316 µM) of 105%, a viability, T/C (second compound 0.316 µM, first compound 0.001 µM) of 99.8% and a viability, T/C (second compound 0.316 µM, first compound 0.00316 µM) of 83.3%. For the same molecule, the viability, T/C (second compound 0.316 µM, first compound 0.01 µM) was 60.1%, the viability, T/C [9] was 38% and the viability, T/C [10] was 19.6%. The viability, T/C (second compound 1 µM, first compound 0.000316 µM) was 100%, the viability, T/C (second compound 1 µM, first compound 0.001 µM) was 87.8% and the viability, T/C (second compound 1 µM, first compound 0.00316 µM) was 84.1%. For the same molecule, the viability, T/C (second compound 1 µM, first compound 0.01 µM) was 67%, the viability, T/C [11] was 41% and the viability, T/C [12] was 16.1%.
